Data reported in US20240148747A1, “SMALL MOLECULE ACTIVATORS OF YAP TRANSCRIPTIONAL ACTIVITY FOR REGENERATIVE ORGAN REPAIR” (THE SCRIPPS RESEARCH INSTITUTE, priority 2021, published 2024).

What was measured:
YAP = experiment: TEAD-LUC activation assay (293A-TEAD-LUC reporter); type: cell-based; settings: Homo sapiens, Table 3; read-out: TEAD-LUC activation assay EC50
Text: More specifically, we used a 293A cell line harboring a stably integrated cassette containing 8 copies of the TEAD binding element upstream of luciferase (8xGTII-LUC). These cells retain responsiveness to contact inhibition-induced decreases in YAP transcriptional output.^6 The TEAD-responsive reporter assay (called 293A-TEAD-LUC throughout) was adapted to 1536-well format and then used to screen a library of ˜738k compounds for YAP-inducing activity.
Additional compounds of the present disclosure were subjected to the assay described above.

[1] = Cytotoxicity in the TEAD-LUC activation assay; settings: human

SMILES | EC50 (YAP) | IC50 [1]
O=C(NCCCc1nccs1)c1cc(-c2ccc(-c3ccccc3)cc2)on1 [Compound 40] | > 20 µM | > 20 µM
NS(=O)(=O)c1ccc(-c2cc(C(=O)NCCCc3nccs3)no2)cc1 [Compound 42] | > 20 µM | > 20 µM
CC(C)(CNC(=O)c1cc(-c2ccccc2)on1)C(F)(F)F [Compound 43] | > 20 µM | > 20 µM
CC(C)(NC(=O)c1cc(-c2ccccc2)on1)C(F)(F)F [Compound 44] | > 20 µM | > 20 µM
CC(F)(F)C(C)(C)NC(=O)c1cc(-c2ccccc2)on1 [Compound 46] | > 20 µM | > 20 µM
O=C(NCCc1ccc(Cl)c(F)c1)c1cc(-c2ccccc2)on1 [Compound 47] | > 20 µM | 15 µM
Cc1ccc(CCNC(=O)c2cc(-c3ccccc3)on2)cc1 [Compound 48] | > 20 µM | > 20 µM
O=C(NCCc1c[nH]c2ccccc12)c1cc(-c2ccccc2)on1 [Compound 49] | > 20 µM | > 20 µM
C[C@H](NC(=O)c1cc(-c2ccccc2)on1)c1ccccc1 [Compound 50] | > 20 µM | > 20 µM
CC(C)(C)SCCNC(=O)c1cc(-c2ccccc2)on1 [Compound 51] | > 20 µM | > 20 µM
CN(CCC#N)C(=O)c1cc(-c2ccccc2)on1 [Compound 52] | > 20 µM | > 20 µM
COc1cccc(CCNC(=O)c2cc(-c3ccccc3)on2)c1 [Compound 53] | > 20 µM | > 20 µM
O=C(NCc1cccs1)c1cc(-c2ccccc2)on1 [Compound 54] | > 20 µM | > 20 µM
O=C(NCCc1cccc(F)c1)c1cc(-c2ccccc2)on1 [Compound 55] | > 20 µM | > 20 µM
O=C(NC12CC(C(F)(F)F)(C1)C2)c1cc(-c2ccccc2)on1 [Compound 56] | > 20 µM | > 20 µM
O=C(NC12CC(F)(C1)C2)c1cc(-c2ccccc2)on1 [Compound 57] | > 20 µM | > 20 µM
CN(C)CCN(C)C(=O)c1cc(-c2ccccc2)on1 [Compound 58] | > 20 µM | > 20 µM
CN(CC(F)F)C(=O)c1cc(-c2ccccc2)on1 [Compound 60] | > 20 µM | 12 µM
C[C@@H](NC(=O)c1cc(-c2ccccc2)on1)c1ccccc1 [Compound 62] | > 20 µM | > 20 µM

SMILES | EC50 (YAP) | IC50 [1]
CC(CNC(=O)c1cc(-c2ccccc2)on1)c1ccc(Cl)cc1 (stereo not shown) [Compound 64] | > 20 µM | > 20 µM
O=C(NCCc1ccc(Cl)c(Cl)c1)c1cc(-c2ccccc2)on1 [Compound 65] | > 20 µM | > 20 µM
CN(CCO)C(=O)c1cc(-c2ccccc2)on1 [Compound 66] | > 20 µM | > 20 µM
C[C@H](NC(=O)c1cc(-c2ccccc2)on1)c1ccc(Cl)cc1 [Compound 67] | > 20 µM | > 20 µM
O=C(NCCc1ccc(F)c(Cl)c1)c1cc(-c2ccccc2)on1 [Compound 68] | > 20 µM | > 20 µM
O=C(NCCc1cccc(C(F)(F)F)c1)c1cc(-c2ccccc2)on1 [Compound 69] | > 20 µM | > 20 µM
Cc1ccc(-c2cc(C(=O)NCCCn3ccnn3)no2)cc1 [Compound 72] | > 20 µM | > 20 µM
COc1ccc(-c2cc(C(=O)NCCCn3ccnn3)no2)cc1 [Compound 73] | > 20 µM | > 20 µM
O=C(NCCCn1ccnn1)c1cc(-c2ccc(C(F)(F)F)cc2)on1 [Compound 76] | > 20 µM | > 20 µM
O=C(NCCCn1ccnn1)c1cc(-c2ccc(OC(F)(F)F)cc2)on1 [Compound 77] | > 20 µM | > 20 µM
O=C(NCCCn1ccnn1)c1cc(-c2cccnc2)on1 [Compound 78] | > 20 µM | > 20 µM
O=C(NCCCn1ccnn1)c1cc(-c2ccc(F)c(F)c2)on1 [Compound 79] | > 20 µM | > 20 µM
O=C(NCCCn1ccnn1)c1cc(-c2cc(F)cc(F)c2)on1 [Compound 80] | > 20 µM | > 20 µM
O=C(NCCCn1ccnn1)c1cc(-c2ccc(Cl)cc2)on1 [Compound 81] | > 20 µM | > 20 µM
O=C(NCCCn1ccnn1)c1cc(-c2cncnc2)on1 [Compound 82] | > 20 µM | > 20 µM
O=C(NCCNc1ccccc1)c1cc(-c2ccccc2)on1 [Compound 83] | > 20 µM | > 20 µM
O=C(NCCCc1nccs1)c1n[nH]c2ccccc12 [Compound 84] | > 20 µM | > 20 µM
O=C(NCCCNc1ccccc1F)c1cc(-c2ccccc2)on1 [Compound 85] | > 20 µM | > 20 µM
O=C(NCCCc1nccs1)c1cc(-c2c(F)cc(F)cc2F)on1 [Compound 86] | > 20 µM | > 20 µM

More lines, main results first:

EC50 (YAP) | SMILES | IC50 [1]
> 20 µM | O=C(NCCCn1cccc1)c1cc(-c2cccc(Cl)c2)on1 [Compound 1] | > 20 µM
1.13 µM | O=C(NCCCn1cccc1)c1cc(-c2ccc(F)cc2)on1 [Compound 2] | > 20 µM
> 20 µM | COc1ccc(-c2cc(C(=O)NCCCn3cccc3)no2)cc1 [Compound 3] | > 20 µM
1.41 µM | O=C(NCCCn1ccc2ccccc21)c1cc(-c2ccccc2)on1 [Compound 4] | > 20 µM
> 20 µM | O=C(NCCCN1CCCC1)c1cc(-c2ccccc2)on1 [Compound 5] | > 20 µM
0.91 µM | O=C(NCCCNc1ccccc1)c1cc(-c2ccccc2)on1 [Compound 6] | > 20 µM
1.13 µM | O=C(NCCCn1nccn1)c1cc(-c2ccccc2)on1 [Compound 7] | > 20 µM
> 20 µM | O=C(NCCCn1cccc1)c1cc(-c2cccc(F)c2)on1 [Compound 9] | > 20 µM
> 20 µM | O=C(NCCCn1cccc1)c1cc(-c2ccccc2)[nH]n1 [Compound 10] | > 20 µM
> 20 µM | Cn1nc(C(=O)NCCCn2cccc2)cc1-c1ccccc1 [Compound 11] | > 20 µM
1.88 µM | O=C(NCCCCn1cccc1)c1cc(-c2ccccc2)on1 [Compound 12] | > 20 µM
1.93 µM | O=C(NCCCn1ccnn1)c1cc(-c2ccccc2)on1 [Compound 14] | > 20 µM
1.87 µM | O=C(NCCn1cccc1)c1cc(-c2ccccc2)on1 [Compound 15] | > 20 µM
1.27 µM | O=C(NCCCn1cccc1)c1cc(-c2ccccc2F)on1 [Compound 16] | > 20 µM
> 20 µM | Cc1c(C(=O)NCCCn2cccc2)noc1-c1ccccc1 [Compound 18] | > 20 µM
5.16 µM | Cc1ccn(CCCNC(=O)c2cc(-c3ccccc3)on2)c1 [Compound 19] | > 20 µM
> 20 µM | N#Cc1ccc(-c2cc(C(=O)NCCCn3cccc3)no2)cc1 [Compound 20] | > 20 µM
> 20 µM | O=C(NCCCn1cccc1)c1cc(-c2cccnc2)on1 [Compound 21] | > 20 µM
> 20 µM | O=C(NCCCn1cccc1)c1noc(-c2ccccc2)n1 [Compound 22] | > 20 µM
2.76 µM | CN(CCCNC(=O)c1cc(-c2ccccc2)on1)S(C)(=O)=O [Compound 24] | > 20 µM
> 20 µM | O=C(NCCCn1ccc(-c2ccccc2)c1)c1cc(-c2ccccc2)on1 [Compound 26] | > 20 µM

EC50 (YAP) | SMILES | IC50 [1]
3.8 µM | O=C(NCCCc1ncco1)c1cc(-c2ccccc2)on1 [Compound 27] | > 20 µM
1.67 µM | O=C(NCCCc1ncno1)c1cc(-c2ccccc2)on1 [Compound 28] | > 20 µM
> 20 µM | O=C(NCCCn1cccc1)c1cc(-c2ccncc2)on1 [Compound 29] | > 20 µM
> 20 µM | O=C(NCCCn1cccc1)c1noc2c1OCc1ccccc1-2 [Compound 31] | > 20 µM
> 20 µM | NC(=O)c1ccc(-c2cc(C(=O)NCCCc3nccs3)no2)cc1 [Compound 32] | > 20 µM
> 20 µM | O=C(NCCCc1nccs1)c1noc(-c2ccccc2)c1-c1ccccc1 [Compound 33] | > 24 µM
> 20 µM | O=C(NCCCc1nccs1)c1noc2ccccc12 [Compound 34] | > 20 µM
> 20 µM | O=C(NCCCc1nccs1)c1cn2ccccc2n1 [Compound 35] | > 20 µM
4.36 µM | CC(=O)N1CCN(CCCNC(=O)c2cc(-c3ccccc3)on2)CC1 [Compound 36] | > 20 µM
15 µM | O=C(Nc1cccc(-c2nccs2)c1)c1cc(-c2ccccc2)on1 [Compound 37] | > 20 µM
3.34 µM | O=C(NCCCN1CCN(C(=O)c2ccccc2)CC1)c1cc(-c2ccccc2)on1 [Compound 38] | > 20 µM
> 20 µM | CS(=O)(=O)c1ccc(-c2cc(C(=O)NCCCc3nccs3)no2)cc1 [Compound 39] | > 20 µM
3.38 µM | COC(=O)N1CCN(CCCNC(=O)c2cc(-c3ccccc3)on2)CC1 [Compound 41] | > 20 µM
3.17 µM | O=C(NC1CC(OC(F)F)C1)c1cc(-c2ccccc2)on1 (stereo not shown) [Compound 45] | > 20 µM
3.58 µM | CC(C)(C)OC(=O)NCCNC(=O)c1cc(-c2ccccc2)on1 [Compound 59] | > 20 µM
2.36 µM | CSCCNC(=O)c1cc(-c2ccccc2)on1 [Compound 61] | > 20 µM
7.58 µM | O=C(NCC(F)(F)F)c1cc(-c2ccccc2)on1 [Compound 63] | > 20 µM
5 µM | O=C(NCCCn1ccnn1)c1cc(-c2ccc(F)cc2)on1 [Compound 70] | > 20 µM
5 µM | O=C(NCCCn1ccnn1)c1cc(-c2ccccc2F)on1 [Compound 71] | > 20 µM
15 µM | O=C(NCCCn1ccnn1)c1cc(-c2cccc(F)c2)on1 [Compound 74] | > 20 µM
10 µM | O=C(NCCCn1ccnn1)c1cc(-c2ccc(F)cc2F)on1 [Compound 75] | > 20 µM
